Test systems include HL-60(TB) leukemia; SF-539 CNS; A498 renal; MDA-MB-435; CCRF-CEM leukemia; RXF 393 renal; UACC-62 melanoma; M14 melanoma; ACHN renal; K-562 leukemia; EKVX NSCLC.
Holding throughout (test): NCI tumour cell line growth inhibition, 48 h

Our source for the GI50 and TGI values is PubChem BioAssay (NCI).

The structures appear in SMILES notation.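 Exposure lasted 48 hours, with cells grown in 96-well plates and compounds tested at five concentrations. GI50 marks 50% less growth. Definition used: TGI = concentration required for complete inhibition of growth.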

`C=C(C)[C@@H]1CC[C@]2(C(=O)NC3CCCCC3)CC[C@]3(C)[C@H](CC[C@@H]4[C@@]5(C)CCCNC(C)(C)[C@@H]5CC[C@]43C)[C@@H]12`: the GI50 with HL-60(TB) leukemia was 2120 nM; in the test with SF-539 CNS it was 1690 nM; with A498 renal, 14.3 µM; with MDA-MB-435, 1.7 µM; with CCRF-CEM leukemia, 2300 nM. Moreover, the TGI with HL-60(TB) leukemia was 4.61 µM; in the test with SF-539 CNS it was 3.11 µM; in the test with A498 renal it was 28.8 µM; with MDA-MB-435 it was 3.15 µM; in the test on CCRF-CEM leukemia, 6.68 µM.
For the compound `Cn1c(=O)c(-c2ccccc2)c(N=[N+]=[N-])c2ccccc21`, the TGI in the test on SF-539 CNS, with RXF 393 renal, with A498 renal, with MDA-MB-435, in the test on UACC-62 melanoma and in the test on CCRF-CEM leukemia was above 100 µM throughout. Further, the figures for the TGI in the test on M14 melanoma, in the test on ACHN renal and with K-562 leukemia were above 100 µM, 96.3 µM and above 100 µM, respectively.
Turning to `CC1(C)N=C(N)N=C(N)N1c1ccc(CCc2ccccc2)cc1`, the TGI in the test on HL-60(TB) leukemia was 49.1 µM; with EKVX NSCLC it was 91.5 µM; in the test with SF-539 CNS, 82.8 µM; with RXF 393 renal, above 100 µM; with A498 renal it was above 100 µM; in the test with UACC-62 melanoma it was above 100 µM. Further, the TGI in the test on CCRF-CEM leukemia and with K-562 leukemia was above 100 µM throughout.
For `CCC(/C=C/C1OC(=O)C=CC1C)=C\C(C)C/C=C/C(C)=C/C(C)C(=O)C(C)C(O)C(C)C/C(C)=C/C(=O)O` (stereo not given), the GI50 with HL-60(TB) leukemia was below 0.001 nM; in the test with EKVX NSCLC it was 1.29 µM; in the test on SF-539 CNS, 0.00202 nM; in the test on RXF 393 renal it was below 1 pM; in the test with A498 renal, 1.31e-06 µM; in the test on UACC-62 melanoma it was 2.23 pM. Also, the GI50 is below 0.001 nM in the test on CCRF-CEM leukemia and below 1 pM in the test on K-562 leukemia. Further, the TGI stood at 11.4 µM in the test on EKVX NSCLC, 3.56 µM in the test with RXF 393 renal, 2.64e-05 µM in the test with MDA-MB-435 and 3.68e-05 µM in the test on M14 melanoma.
Regarding `COc1ccc2cc(/C=N/NC(=O)Nc3ccccc3)ccc2c1`, the TGI with HL-60(TB) leukemia, with A498 renal, with MDA-MB-435, in the test with UACC-62 melanoma, in the test on CCRF-CEM leukemia and with M14 melanoma was above 100 µM in each case. In the test on K-562 leukemia, this compound registered a TGI above 100 µM.
On to `C[C@H](CCC(=O)O)[C@H]1CC[C@H]2[C@@H]3CC[C@@H]4C[C@H](O)CC[C@]4(C)[C@H]3C[C@H](O)[C@]12C`, for which the TGI in the test with HL-60(TB) leukemia is 67.1 µM; in the test with EKVX NSCLC, above 100 µM; with SF-539 CNS, 99 µM; in the test on RXF 393 renal, above 100 µM; in the test on A498 renal, above 100 µM; with MDA-MB-435, above 100 µM. Further, the TGI was above 100 µM with UACC-62 melanoma; 63.8 µM with CCRF-CEM leukemia; above 100 µM in the test on M14 melanoma; above 100 µM with ACHN renal; above 100 µM in the test on K-562 leukemia.
For the compound `CC1(CCOCc2ccccc2)NC(=O)NC1=O` (stereo not given), the TGI with EKVX NSCLC, in the test with RXF 393 renal, with A498 renal, in the test with MDA-MB-435, in the test with UACC-62 melanoma and in the test on M14 melanoma was above 100 µM throughout. For the same compound, the TGI in the test on ACHN renal and with K-562 leukemia was above 100 µM throughout.
For `Cc1[nH]nc(C(F)(F)F)c1N=NN1CCOCC1`, the TGI was 6.18 µM with HL-60(TB) leukemia; 21.3 µM in the test with EKVX NSCLC; 28.6 µM in the test with SF-539 CNS; 25.1 µM in the test on RXF 393 renal; 32.6 µM in the test with A498 renal; 26 µM with MDA-MB-435. The TGI worked out at 23.5 µM in the test with UACC-62 melanoma; 10.8 µM in the test with CCRF-CEM leukemia; 32.8 µM in the test with M14 melanoma; 17.7 µM in the test on ACHN renal; 2.4 µM in the test with K-562 leukemia.
With `c1ccc(CCNc2ccccn2)nc1`, the TGI with HL-60(TB) leukemia, in the test on EKVX NSCLC, in the test with RXF 393 renal, with A498 renal, in the test with MDA-MB-435 and in the test with UACC-62 melanoma was above 100 µM in each case. The TGI in the test on CCRF-CEM leukemia, in the test with M14 melanoma and in the test on ACHN renal was above 100 µM in each case.
Turning to `CC(OC(C)(C)C)[C@H](NC(=O)OCC(Cl)(Cl)Cl)C(=O)O` (stereo not given in full), the TGI in the test on HL-60(TB) leukemia, in the test with EKVX NSCLC, in the test with SF-539 CNS, in the test on RXF 393 renal, with A498 renal and with UACC-62 melanoma was above 100 µM in each case. Further, the TGI with CCRF-CEM leukemia, in the test with M14 melanoma, with ACHN renal and in the test with K-562 leukemia was above 100 µM in each case.
